Results: the supplement of paper PMC10307832

Assays:
Test in all cases: relative viability (nuclei count vs DMSO), 5 days (fraction); higher = more cells survive
XMD14-99 + Olaparib = compound: CN1CCN(CC1)C2=CC(=C(C=C2)NC3=NC(=C(S3)C(=O)C4=C(C=CC=C4Cl)Cl)N)OC [XMD14-99] + O=C(c1cc(Cc2n[nH]c(=O)c3ccccc23)ccc1F)N1CCN(C(=O)C2CC2)CC1 [Olaparib] (partner 8 µM)
Procedure, shortened: (§1)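 Five library-drug doses in √10 steps were combined with a fixed anchor-drug dose, or a single drug was given alone, by pin tool to lung cancer cell lines in 1536-well plates the day after seeding. Nuclei were stained and counted after 5 days. Relative viability is the nuclei count in treated wells over that in vehicle wells, taken as the median of duplicate plates.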

AZD1208 + Decitabine = compound: N[C@@H]1CCCN(c2c(/C=C3\SC(=O)NC3=O)cccc2-c2ccccc2)C1 [AZD1208] + Nc1ncn([C@H]2C[C@H](O)[C@@H](CO)O2)c(=O)n1 [Decitabine] (partner 2 µM)
Procedure, shortened: as §1

XMD14-99 + Lapatinib = compound: CN1CCN(CC1)C2=CC(=C(C=C2)NC3=NC(=C(S3)C(=O)C4=C(C=CC=C4Cl)Cl)N)OC [XMD14-99] + CS(=O)(=O)CCNCc1ccc(-c2ccc3ncnc(Nc4ccc(OCc5cccc(F)c5)c(Cl)c4)c3c2)o1 [Lapatinib] (partner 2 µM)
Procedure, shortened: as §1

AZD1208 + Tozasertib = compound: N[C@@H]1CCCN(c2c(/C=C3\SC(=O)NC3=O)cccc2-c2ccccc2)C1 [AZD1208] + Cc1cc(Nc2cc(N3CCN(C)CC3)nc(Sc3ccc(NC(=O)C4CC4)cc3)n2)n[nH]1 [Tozasertib] (partner 0.1 µM)
Procedure, shortened: as §1

Cell Line | relative viability (XMD14-99 + Olaparib; first compound 0.08 µM) | relative viability (XMD14-99 + Olaparib; first compound 0.8 µM) | relative viability (XMD14-99 + Olaparib; first compound 2.53 µM) | relative viability (XMD14-99 + Olaparib; first compound 8 µM) | relative viability (AZD1208 + Decitabine; first compound 0.08 µM) | relative viability (AZD1208 + Decitabine; first compound 0.253 µM) | relative viability (AZD1208 + Decitabine; first compound 0.8 µM) | relative viability (AZD1208 + Decitabine; first compound 2.53 µM) | relative viability (AZD1208 + Decitabine; first compound 8 µM) | relative viability (XMD14-99 + Lapatinib; first compound 0.08 µM) | relative viability (XMD14-99 + Lapatinib; first compound 0.8 µM) | relative viability (XMD14-99 + Lapatinib; first compound 2.53 µM) | relative viability (XMD14-99 + Lapatinib; first compound 8 µM) | relative viability (AZD1208 + Tozasertib; first compound 0.08 µM) | relative viability (AZD1208 + Tozasertib; first compound 0.253 µM) | relative viability (AZD1208 + Tozasertib; first compound 0.8 µM) | relative viability (AZD1208 + Tozasertib; first compound 2.53 µM) | relative viability (AZD1208 + Tozasertib; first compound 8 µM)
NCI-H520 | 0.344 | 0.381 | 0.32 | 0.196 | 0.566 | 0.507 | 0.473 | 0.456 | 0.428 | 0.845 | 0.88 | 0.834 | 0.652 | 0.432 | 0.37 | 0.422 | 0.355 | 0.331
NCI-H596 | 0.815 | 0.725 | 0.646 | 0.665 | 0.847 | 1.01 | 0.901 | 0.902 | 0.756 | 1.12 | 1.05 | 1.17 | 0.938 | 0.896 | 0.925 | 0.77 | 0.733 | 0.592
NCI-H647 | 0.512 | 0.561 | 0.746 | 0.38 | 0.256 | 0.56 | 0.33 | 0.372 | 0.297 | 1.11 | 1.03 | 1.13 | 0.842 | 0.239 | 0.345 | 0.175 | 0.295 | 0.163
NCI-H650 | 0.39 | 0.355 | 0.338 | 0.327 | 0.284 | 0.297 | 0.352 | 0.31 | 0.343 | 0.92 | 0.956 | 0.663 | 0.774 | 0.732 | 0.725 | 0.67 | 0.684 | 0.66
NCI-H661 | 0.684 | 0.663 | 0.619 | 0.485 | 0.559 | 0.56 | 0.547 | 0.502 | 0.51 | 0.391 | 0.521 | 0.425 | 0.402 | 0.351 | 0.347 | 0.361 | 0.358 | 0.355
NCI-H727 | 0.737 | 0.68 | 0.712 | 0.523 | 0.906 | 0.689 | 0.589 | 0.867 | 0.854 | 0.791 | 0.935 | 0.721 | 0.484 | 0.673 | 0.636 | 0.568 | 0.566 | 0.585
NCI-H838 | 0.736 | 0.754 | 0.637 | 0.45 | 0.458 | 0.491 | 0.465 | 0.493 | 0.406 | 0.947 | 0.993 | 0.851 | 0.69 | 0.277 | 0.261 | 0.267 | 0.268 | 0.264
NCI-H1355 | 0.72 | 0.708 | 0.715 | 0.493 | 0.331 | 0.327 | 0.335 | 0.341 | 0.33 | 1.03 | 0.958 | 1.01 | 0.61 | 0.539 | 0.474 | 0.407 | 0.389 | 0.308
